In patent publication US20230338316A1, “ABBAPOLINS AS INHIBITORS AND DEGRADERS OF POLO-LIKE KINASES” (UNIVERSITY OF SOUTH CAROLINA, priority 2022, published 2023):

What was measured:
[1] = system: NCI-H522; assay: Single dose cell viability assay, NCI-H522; format: cell-based; details: NCI-H522 (NSCLC), single dose 25 μM
Procedure: (§1) Lead abbapolin compounds were tested in multiple cancer cell lines, including non-small cell lung cancer (NSCLC) cells, melanoma cells, colon cancer cells, central nervous system (CNS) cancer cells, prostate cancer cells, renal cancer cells, and breast cancer cells. Each of these cancer cells lines were sensitive to the lead abbapolin compounds in a cell viability assay, including 6184 (Table 3), 6277 (Table 4), 6279 (Table 5), 6355 (Table 6), 6359 (Table 7), 6369 (Table 8), and 6421 (Table 9).

[2] = system: KM12; assay: Single dose cell viability assay, KM12; format: cell-based; details: KM12 (Colon), single dose 25 μM
Procedure: as §1

[3] = system: K-562; assay: Single dose cell viability assay, K-562; format: cell-based; details: K-562 (Leukemia), single dose 25 μM
Procedure: as §1

[4] = system: SF-295; assay: Single dose cell viability assay, SF-295; format: cell-based; details: SF-295 (CNS), single dose 25 μM
Procedure: as §1

[5] = system: CCRF-CEM; assay: Single dose cell viability assay, CCRF-CEM; format: cell-based; details: CCRF-CEM (Leukemia), single dose 25 μM
Procedure: as §1

[6] = system: HOP-92; assay: Single dose cell viability assay, HOP-92; format: cell-based; details: HOP-92 (NSCLC), single dose 25 μM
Procedure: as §1

[7] = system: PC-3; assay: Single dose cell viability assay, PC-3; format: cell-based; details: PC-3 (Prostate), single dose 25 μM
Procedure: as §1

[8] = system: SNB-19; assay: Single dose cell viability assay, SNB-19; format: cell-based; details: SNB-19 (CNS), single dose 25 μM
Procedure: as §1

[9] = system: RPMI-8226; assay: Single dose cell viability assay, RPMI-8226; format: cell-based; details: RPMI-8226 (Leukemia), single dose 25 μM
Procedure: as §1

[10] = system: U251; assay: Single dose cell viability assay, U251; format: cell-based; details: U251 (CNS), single dose 25 μM
Procedure: as §1

[11] = biological target: T1, PLK1 PBD (367-603) (Homo sapiens, UniProt P53350); assay: Fluorescence polarization assay, PLK1 PBD; format: binding; details: fluorescence polarization; read-out: PLK1 PBD IC50
T1 construct: PLK1 PBD (367-603) and PLK3 PBD (335-646) proteins were obtained from BPS Biosciences Inc; purchased BPS Biosciences Inc. (San Diego, CA)
T1 sequence (P53350 367-603): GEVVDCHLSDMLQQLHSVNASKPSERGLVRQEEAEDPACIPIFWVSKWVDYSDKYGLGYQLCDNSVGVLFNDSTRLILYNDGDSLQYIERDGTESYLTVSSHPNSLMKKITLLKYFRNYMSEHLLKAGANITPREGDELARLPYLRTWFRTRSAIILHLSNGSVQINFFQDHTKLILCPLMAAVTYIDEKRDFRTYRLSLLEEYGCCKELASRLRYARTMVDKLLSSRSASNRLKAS
Procedure: Materials were dissolved in DMSO (10 mM) and diluted from 10 nM to 600 μM (maximum of 6% DMSO tolerance in the assay). PLK1 PBD (367-603) and PLK3 PBD (335-646) proteins were obtained from BPS Biosciences Inc. (San Diego, CA); 17 ng PLK1 and 156 ng PLK3 were used per reaction. The fluorescein-tracer phospho-peptides (MAGPMQS[pT]PLNGAKK (SEQ ID NO: 1) for PLK1, and GPLATS[pT]PKNG (SEQ ID NO: 2) for PLK3) were used at a final concentration of 10 nM. Incubation was carried out at room temperature for 45 minutes. Fluorescence was measured using a DTX 880 plate reader and Multimode Analysis software (Beckman Coulter, Brea, CA). The polarization values in millipolarization (mP) units were measured at an excitation wavelength of 488 nm and an emission wavelength of 535 nm. Each data point was performed in triplicate for every experiment, and experiments were performed at least three times. An IC50 value for each compound was calculated from linear regression analysis of the plots.

[12] = system: HCT-15; assay: Single dose cell viability assay, HCT-15; format: cell-based; details: HCT-15 (Colon), single dose 25 μM
Procedure: as §1

[13] = system: ACHN; assay: Single dose cell viability assay, ACHN; format: cell-based; details: ACHN (Renal), single dose 25 μM
Procedure: as §1

[14] = system: NCI-H226; assay: Single dose cell viability assay, NCI-H226; format: cell-based; details: NCI-H226 (NSCLC), single dose 25 μM
Procedure: as §1

[15] = system: MOLT-4; assay: Single dose cell viability assay, MOLT-4; format: cell-based; details: MOLT-4 (Leukemia), single dose 25 μM
Procedure: as §1

[16] = system: MDA-MB-468; assay: Single dose cell viability assay, MDA-MB-468; format: cell-based; details: MDA-MB-468 (Breast), single dose 25 μM
Procedure: as §1

[17] = system: UO-31; assay: Single dose cell viability assay, UO-31; format: cell-based; details: UO-31 (Renal), single dose 25 μM
Procedure: as §1

[18] = system: EKVX; assay: Single dose cell viability assay, EKVX; format: cell-based; details: EKVX (NSCLC), single dose 25 μM
Procedure: as §1

[19] = system: SK-MEL-2; assay: Single dose cell viability assay, SK-MEL-2; format: cell-based; details: SK-MEL-2 (Melanoma), single dose 25 μM
Procedure: as §1

[20] = system: MCF7; assay: Single dose cell viability assay, MCF7; format: cell-based; details: MCF7 (Breast), single dose 25 μM
Procedure: as §1

[21] = system: UACC-62; assay: Single dose cell viability assay, UACC-62; format: cell-based; details: UACC-62 (Melanoma), single dose 25 μM
Procedure: as §1

[22] = system: HL-60(TB); assay: Single dose cell viability assay, HL-60(TB); format: cell-based; details: HL-60(TB) (Leukemia), single dose 25 μM
Procedure: as §1

[23] = system: SK-MEL-5; assay: Single dose cell viability assay, SK-MEL-5; format: cell-based; details: SK-MEL-5 (Melanoma), single dose 25 μM
Procedure: as §1

[24] = system: T-47D; assay: Single dose cell viability assay, T-47D; format: cell-based; details: T-47D (Breast), single dose 25 μM
Procedure: as §1

[25] = system: NCI-H23; assay: Single dose cell viability assay, NCI-H23; format: cell-based; details: NCI-H23 (NSCLC), single dose 25 μM
Procedure: as §1

## CCCCCCCCc1ccc(C(=O)Nc2ccc(C)cc2C(=O)O)cc1O [compound 6279]
[1]
  Cells Remaining (%): 59.89%
[2]
  Cells Remaining (%): 52.19%
[3]
  Cells Remaining (%): 49.7%
[4]
  Cells Remaining (%): 59.38%
[5]
  Cells Remaining (%): 55.59%
[6]
  Cells Remaining (%): 57.85%
[7]
  Cells Remaining (%): 58.63%
[8]
  Cells Remaining (%): 43.49%
[9]
  Cells Remaining (%): 63.91%
[10]
  Cells Remaining (%): 45.14%
[11]
  IC50: 31.8 µM
[12]
  Cells Remaining (%): 56.83%
[13]
  Cells Remaining (%): 61.79%

## CCCCCCCCc1ccc(C(=O)Nc2ccccc2O)cc1 [compound 6421]
[1]
  Cells Remaining (%): 70.52%
[14]
  Cells Remaining (%): 66.21%
[15]
  Cells Remaining (%): 58.2%
[16]
  Cells Remaining (%): 45.03%
[17]
  Cells Remaining (%): 59.4%
[3]
  Cells Remaining (%): 53.71%
[18]
  Cells Remaining (%): 52.89%
[5]
  Cells Remaining (%): 37.43%
[19]
  Cells Remaining (%): 38.46%
[20]
  Cells Remaining (%): 35.21%
[9]
  Cells Remaining (%): 48.98%
[21]
  Cells Remaining (%): 69.99%
[22]
  Cells Remaining (%): 69.66%
[23]
  Cells Remaining (%): 70.42%
[24]
  Cells Remaining (%): 27.32%
[25]
  Cells Remaining (%): 62.07%
